Experimental data taken from patent publication US12209096B2, “Compounds and compositions for inducing chondrogenesis” (NOVARTIS AG, priority 2017, dated 2025).
Like-named read-outs stand apart in the source and are kept apart here.

Tested on: NHACs
Assay: calcium flux assay
Assay type: cell-based, human
Settings: for Emax: read-out: (A) % Efficacy
Protocol: NHACs were plated in 1536 Greiner plate at 2000 cells/well in 4 ul volume. 24 hours later, 4 ul of Calcium 5 dye solution (Hank's Balanced Salt/HEPES buffer containing 5 mM of Probenecid) was then added and incubated for 1 hour at room temperature. Fluorescence readings at excitation wavelength of 470-495 nm and emission wavelength of 515-575 nm were done using FLIPR high-throughput screening system (Molecular Devices, Sunnyvale, CA). The test compound was then added to each well at the indicated dose. Signal was measured prior compound dispense and after using a first interval of 1 second for 60 reads and second interval of 3 second for 20 reads. Data was analyzed using Molecular Devices ScreenWorks® Software.

Molecule	EC50 (Homo sapiens) [µM]	Emax (Homo sapiens) [%]	(A) % Efficacy [%]	EC50 [µM]
Cc1cc([C@@H]2[C@@H](C(=O)Nc3cccc(C(F)(F)F)c3)[C@@H]3O[C@H]2C[C@H]3O)ccn1 [Example 86, (1S,2R,3S,4S,6R)-6-hydroxy-3-(2-methylpyridin-4-yl)-N-(3-(trifluoromethyl)phenyl)-7-oxabicyclo[2.2.1]heptane-2-carboxamide]	> 50	38	–	–
(1R,2S,3S,4R,5S)-5-hydroxy-3-(pyridin-4-yl)-N-[3-(trifluoromethyl)phenyl]-7-oxabicyclo[2.2.1]heptane-2-carboxamide [Example 11]	–	–	27	> 50
Cc1cc([C@H]2[C@H](C(=O)Nc3ccc(Cl)c(Cl)c3)[C@@H]3C[C@](C)(O)[C@H]2O3)ccn1 [Example 179, (1S,2S,3R,4S,5S)—N-(3,4-dichlorophenyl)-5-hydroxy-5-methyl-3-(2-methylpyridin-4-yl)-7-oxabicyclo[2.2.1]heptane-2-carboxamide]	> 50	22	–	–
Cc1cc([C@@H]2[C@@H](C(=O)Nc3ccc(Cl)c(Cl)c3)[C@H]3C[C@@](C)(O)[C@@H]2O3)ccn1 [Example 178, (1R,2R,3S,4R,5R)—N-(3,4-dichlorophenyl)-5-hydroxy-5-methyl-3-(2-methylpyridin-4-yl)-7-oxabicyclo[2.2.1]heptane-2-carboxamide]	> 50	1	–	–
Cc1cc([C@H]2[C@H]3O[C@H](C[C@@H]3F)[C@H]2C(=O)Nc2cccc(C(F)(F)F)c2)ccn1 [Example 17, (1R,2S,3S,4R,5S)-5-fluoro-3-(2-methylpyridin-4-yl)-N-[3-(trifluoromethyl)phenyl]-7-oxabicyclo[2.2.1]heptane-2-carboxamide]	> 50	0	–	–
Cc1cc([C@@H]2[C@@H](C(=O)Nc3ccc(Cl)c(Cl)c3)[C@@H]3O[C@H]2C[C@H]3F)ccn1 [Example 106, (1S,2R,3S,4S,6R)—N-(3,4-dichlorophenyl)-6-fluoro-3-(2-methylpyridin-4-yl)-7-oxabicyclo[2.2.1]heptane-2-carboxamide]	24	84	–	–
O=C(Nc1ccc(Cl)c(Cl)c1)[C@@H]1[C@@H]2O[C@@H]([C@H]3C[C@H]32)[C@@H]1c1ccncc1 [Example 44, (1S,2S,4R,5R,6S,7S)—N-(3,4-dichlorophenyl)-7-(pyridin-4-yl)-8-oxatricyclo[3.2.1.0^2,4]octane-6-carboxamide]	> 50	0	–	–
Nc1cc([C@H]2[C@H]3O[C@H](C[C@@H]3O)[C@H]2C(=O)Nc2ccc(Cl)c(Cl)c2)ccn1 [Example 57, (1R,2S,3S,4R,5S)-3-(2-aminopyridin-4-yl)-N-(3,4-dichlorophenyl)-5-hydroxy-7-oxabicyclo[2.2.1]heptane-2-carboxamide]	> 50	56	–	–
CN(C)c1ncc([C@H]2[C@H]3O[C@H](C[C@@H]3O)[C@H]2C(=O)Nc2ccc(Cl)c(Cl)c2)cn1 [Example 55, (1R,2S,3S,4R,5S)—N-(3,4-dichlorophenyl)-3-(2-(dimethylamino)pyrimidin-5-yl)-5-hydroxy-7-oxabicyclo[2.2.1]heptane-2-carboxamide]	> 50	0	–	–
Cc1cc([C@H]2[C@H]3O[C@H](C[C@@H]3O)[C@H]2C(=O)Nc2ccc(Cl)c(Cl)c2)ccn1 (racemic) [Example 53, rac-(1R,2S,3S,4R,5S)—N-(3,4-dichlorophenyl)-5-hydroxy-3-(2-methylpyridin-4-yl)-7-oxabicyclo[2.2.1]heptane-2-carboxamide]	> 50	43	–	–
Cc1cc([C@H]2[C@H]3O[C@H](C[C@H]3N[C@H]3C[C@H](O)C3)[C@@H]2C(=O)Nc2ccc(Cl)c(Cl)c2)ccn1 [Example 170, (1R,2R,3S,4R,5R)—N-(3,4-dichlorophenyl)-5-(((1r,3R)-3-hydroxycyclobutyl)amino)-3-(2-methylpyridin-4-yl)-7-oxabicyclo[2.2.1]heptane-2-carboxamide]	> 50	37	–	–
O=C(Nc1cccc(C(F)(F)F)c1)[C@@H]1[C@@H]2O[C@@H]([C@H]3C[C@H]32)[C@@H]1c1ccnc(F)c1 [Example 41, (1S,2S,4R,5R,6S,7S)-7-(2-fluoropyridin-4-yl)-N-(3-(trifluoromethyl)phenyl)-8-oxatricyclo[3.2.1.0^2,4]octane-6-carboxamide]	24	121	–	–
Cc1cc([C@H]2[C@H]3O[C@H](C[C@@H]3O)[C@@H]2C(=O)Nc2cccc(C(F)(F)F)c2)ccn1 [Example 85, (1R,2R,3S,4R,5S)-5-hydroxy-3-(2-methylpyridin-4-yl)-N-(3-(trifluoromethyl)phenyl)-7-oxabicyclo[2.2.1]heptane-2-carboxamide]	> 50	56	–	–
O=C(Nc1ccc(Cl)c(Cl)c1)[C@@H]1[C@@H](c2ccnc(F)c2F)[C@H]2O[C@@H]1C[C@@H]2O [Example 146, (1R,2R,3S,4R,5S)—N-(3,4-dichlorophenyl)-3-(2,3-difluoropyridin-4-yl)-5-hydroxy-7-oxabicyclo[2.2.1]heptane-2-carboxamide]	20	150	–	–
Cc1cc([C@@H]2[C@@H]3O[C@@H](C[C@H]3O)[C@@H]2C(=O)Nc2cnc(Cl)c(Cl)c2)ccn1 (single isomer, unassigned) [Example 7]	> 50	0	–	–
Cc1cc([C@H]2[C@H]3O[C@H](C[C@@H]3F)[C@H]2C(=O)Nc2ccc(Cl)c(Cl)c2)ccn1 [Example 16, (1R,2S,3S,4R,5S)-N-(3,4-dichlorophenyl)-5-fluoro-3-(2-methylpyridin-4-yl)-7-oxabicyclo[2.2.1]heptane-2-carboxamide]	21	105	–	–
Cc1cc([C@H]2[C@H]3O[C@H](C[C@H]3F)[C@@H]2C(=O)Nc2ncc(C)s2)ccn1 [Example 102, (1R,2R,3S,4R,5R)-5-fluoro-3-(2-methylpyridin-4-yl)-N-(5-methylthiazol-2-yl)-7-oxabicyclo[2.2.1]heptane-2-carboxamide]	2.1	84	–	–
Cc1cc([C@H]2[C@H]3O[C@H](C[C@@H]3O)[C@@H]2C(=O)Nc2ccc(-c3ccccc3F)c(Cl)c2)ccn1 [Example 78, (1R,2R,3S,4R,5S)—N-(2-chloro-2′-fluoro-[1,1′-biphenyl]-4-yl)-5-hydroxy-3-(2-methylpyridin-4-yl)-7-oxabicyclo[2.2.1]heptane-2-carboxamide]	> 50	70	–	–
COc1cc([C@H]2[C@H]3O[C@H](C[C@@H]3O)[C@H]2C(=O)Nc2ccc(Cl)c(Cl)c2)ccn1 (single isomer, unassigned) [Example 49a]	0.84	53	–	–
Cc1cc([C@@H]2[C@@H]3O[C@@H]([C@H]4C[C@H]43)[C@@H]2C(=O)Nc2cnc(Cl)c(Cl)c2)ccn1 (single isomer, unassigned) [Example 46]	> 50	0	–	–
COc1cc([C@@H]2[C@@H]3O[C@@H](C[C@H]3O)[C@@H]2C(=O)Nc2ccc(Cl)c(Cl)c2)ccn1 (single isomer, unassigned) [Example 49b]	> 50	31	–	–
Cc1cc([C@H]2[C@H]3O[C@H](C[C@@H]3O)[C@@H]2C(=O)Nc2cnc(C)c(Cl)c2)ccn1 [Example 81, (1R,2R,3S,4R,5S)—N-(5-chloro-6-methylpyridin-3-yl)-5-hydroxy-3-(2-methylpyridin-4-yl)-7-oxabicyclo[2.2.1]heptane-2-carboxamide]	2.7	34	–	–
O=C(Nc1cnc(Cl)c(Cl)c1)[C@H]1[C@@H]2O[C@@H]([C@H]3C[C@H]32)[C@@H]1c1ccnc(F)c1F (single isomer, unassigned) [Example 72]	7.7	208	–	–
O=C(Nc1cccc(C(F)(F)F)c1)[C@H]1[C@@H]2O[C@@H]([C@H]3C[C@H]32)[C@@H]1c1ccncc1 [Example 131, (1S,2S,4R,5R,6R,7S)-7-(pyridin-4-yl)-N-(3-(trifluoromethyl)phenyl)-8-oxatricyclo[3.2.1.0^2,4]octane-6-carboxamide]	19	360	–	–
Cc1ccc([C@H]2[C@H]3O[C@H](C[C@@H]3F)[C@H]2C(=O)Nc2ccc(Cl)c(Cl)c2)cn1 [Example 21, (1R,2S,3S,4R,5S)-N-(3,4-dichlorophenyl)-5-fluoro-3-(6-methylpyridin-3-yl)-7-oxabicyclo[2.2.1]heptane-2-carboxamide]	27	159	–	–
Cc1ccc([C@H]2[C@H]3O[C@H](C[C@H]3F)[C@@H]2C(=O)Nc2ccc(Cl)c(Cl)c2)cn1 [Example 164, (1R,2R,3S,4R,5R)—N-(3,4-dichlorophenyl)-5-fluoro-3-(6-methylpyridin-3-yl)-7-oxabicyclo[2.2.1]heptane-2-carboxamide]	> 50	0	–	–
COc1cc([C@H]2[C@H]3O[C@H]([C@@H]4C[C@@H]43)[C@H]2C(=O)Nc2cnc(Cl)c(Cl)c2)ccn1 [Example 1, (1S,2S,4R,5R,6S,7S)—N-(5,6-dichloropyridin-3-yl)-7-(2-methoxypyridin-4-yl)-8-oxatricyclo[3.2.1.0^2,4]octane-6-carboxamide]	3.4	164	–	–
CN[C@@H]1C[C@H]2O[C@@H]1[C@H](c1ccnc(F)c1)[C@H]2C(=O)Nc1ccc(Cl)c(Cl)c1 [Example 171, (1R,2R,3S,4R,5R)—N-(3,4-dichlorophenyl)-3-(2-fluoropyridin-4-yl)-5-(methylamino)-7-oxabicyclo[2.2.1]heptane-2-carboxamide]	24	237	–	–
O=C(Nc1ccc(Cl)c(Cl)c1)[C@H]1[C@@H](c2ccnc(F)c2)[C@H]2O[C@@H]1C[C@@H]2F [Example 22, (1R,2S,3S,4R,5S)-N-(3,4-dichlorophenyl)-5-fluoro-3-(2-fluoropyridin-4-yl)-7-oxabicyclo[2.2.1]heptane-2-carboxamide]	4.2	128	–	–
